Measured values from US11149031B2, “Substituted N-(3-fluoropropyl)-pyrrolidine compounds, processes for their preparation and therapeutic uses thereof” (SANOFI, priority 2016, dated 2021).
Where two headings read alike, the source gives them in different places.

Columns and labels:
[1] = molecular target: His6-ERα298-554 D538G mutant (ERα ligand-binding domain) (Homo sapiens (Human), UniProt P03372, D538G); assay: Test A: biochemical antagonist activity, LanthaScreen TR-FRET ERα coactivator assay, D538G mutant; conditions: read-out: Antagonism D538G IC50
Sequence of His6-ERα298-554 D538G mutant (ERα ligand-binding domain) (P03372 298-554 D538G): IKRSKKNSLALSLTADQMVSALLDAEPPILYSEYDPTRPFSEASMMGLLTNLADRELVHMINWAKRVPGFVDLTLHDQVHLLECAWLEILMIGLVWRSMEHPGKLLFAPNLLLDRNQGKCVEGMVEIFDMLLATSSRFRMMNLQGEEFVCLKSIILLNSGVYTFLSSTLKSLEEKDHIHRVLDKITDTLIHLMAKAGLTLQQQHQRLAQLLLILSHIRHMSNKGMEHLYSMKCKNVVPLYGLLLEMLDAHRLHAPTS
Summary of the method: (§1)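 His6-ERα LBD (aa 298–554), 0.5 nM, with Tb-anti-His6 antibody, 250 nM PGC1a peptide and 3 nM (or 10 nM) estradiol in pH 7.4 potassium phosphate/DTT buffer; incubated with compound overnight at room temperature. IC50 from 4-parameter logistic fit of TR-FRET 520:495 nm ratio.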

[2] = tested on: MCF7 cells (breast tumor cells) WT; assay: Test B: cell proliferation/viability assay (CellTiter-Glo) on MCF7 WT; assay type: cell-based; conditions: Homo sapiens, MCF7, 168 h, 7 days of compound exposure
Protocol: (§2) Test B: Cell Proliferation/Viability Assay on MCF7 (Breast Tumor Cells) WT and Mutants Cell Lines
(§3) Test B involves measuring the in vitro proliferation activity of the compounds of the invention by analyzing the viability of the tumor cells.
The measurements of the viability were made using a breast cancer cell viability assay as described hereunder. […]
(§4) MCF7 cells (ATCC) or MCF7 cells expressing (and dependent) on mutants estrogen receptor Tyr 537 Ser or Asp 538 Gly were seeded in 384 wells microplate at concentration of >999 cells/30 μL per well in red phenol free MEM medium containing 5% charcoal dextran striped FBS. The following day, 9 points serial 1:5 dilution of each compound were added to the cells in 20 μL at final concentrations ranging from 3-0.000001 μM. After 7 days of compound exposure, 50 μL of CellTiter-Glo (promega) was added to the cells and relative luminescence arbitrary units (RLUs) were determined in luminescence plate reader (Envision device). CellTiter-Glo was added to 50 μL medium without cells to determine the background signal.
(§5) The percent of viability of each sample was determined as follows: (RLU sample−RLU background/RLU untreated−RLU background)*100=% viability.

[3] = molecular target: ERα in MCF7 cells (Homo sapiens (Human), UniProt P03372); assay: Test C: estrogen receptor degradation activity, ERα in cell western assay in MCF7 cells; assay type: cell-based; conditions: for DC50: 4 hours post compound addition, ERα in cell western, read-out: Degradation IC50; for % Degradation at 3 μM: 4 hours, relative to fulvestrant
Sequence of ERα in MCF7 cells (P03372 whole entry): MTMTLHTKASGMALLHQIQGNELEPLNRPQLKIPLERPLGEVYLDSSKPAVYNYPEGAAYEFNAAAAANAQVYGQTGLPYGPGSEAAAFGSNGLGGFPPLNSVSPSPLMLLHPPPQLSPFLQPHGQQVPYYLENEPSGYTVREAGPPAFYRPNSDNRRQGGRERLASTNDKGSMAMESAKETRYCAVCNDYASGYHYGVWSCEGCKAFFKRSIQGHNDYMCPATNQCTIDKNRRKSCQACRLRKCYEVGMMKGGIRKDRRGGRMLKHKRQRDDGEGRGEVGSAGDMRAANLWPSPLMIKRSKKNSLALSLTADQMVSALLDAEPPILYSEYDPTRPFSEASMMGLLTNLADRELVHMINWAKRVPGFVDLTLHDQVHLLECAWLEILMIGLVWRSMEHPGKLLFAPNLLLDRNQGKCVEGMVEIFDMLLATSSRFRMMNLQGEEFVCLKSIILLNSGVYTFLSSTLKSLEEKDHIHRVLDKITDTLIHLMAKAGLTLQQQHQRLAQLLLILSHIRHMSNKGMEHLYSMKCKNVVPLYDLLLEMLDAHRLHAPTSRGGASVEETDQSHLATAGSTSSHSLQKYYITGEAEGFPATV
Summary of the method: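 Steps: seed MCF7 in phenol red-free medium containing 5% charcoal-dextran stripped FBS; next day add compound, final 3–0.000018 μM; after 4 h fix with 5% formalin plus 0.1% Triton; stain ERα overnight, then secondary at 37 °C for 60 min with Syto-64 at 2 μM; scan green and red intensities.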

[4] = tested on: MCF7 cells expressing mutant estrogen receptor Tyr 537 Ser; assay: Test B: cell proliferation/viability assay (CellTiter-Glo) on MCF7 Tyr 537 Ser mutant; assay type: cell-based; conditions: Homo sapiens, MCF7, 168 h, MCF7 cells expressing ER Tyr 537 Ser mutant, 7 days of compound exposure, read-out: proliferation MCF7 Y537S IC50
Source text: as §2, §3
(§6) The measurements of the viability were made using a breast cancer cell viability assay as described hereunder.
(§7) MCF7 cells expressing (and dependent) on mutants estrogen receptor Tyr 537 Ser or Asp 538 Gly were generated by transfection of MCF7 parental cells (ATCC) with expression vectors coding for different mutants of estrogen receptor Tyr 537 Ser or Asp 538 Gly. The cells were first selected by antibiotic (related to vector expression) and then selected for their growth dependence on estrogen receptor based on their ability to grow in vitro in absence of estradiol (parental cell line die in absence of estradiol).
as §4, §5

[5] = molecular target: His6-ERα298-554 WT (ERα ligand-binding domain) (Homo sapiens (Human), UniProt P03372); assay: Test A: biochemical antagonist activity, LanthaScreen TR-FRET ERα coactivator assay, WT; conditions: read-out: Antagonism WT IC50
Sequence of His6-ERα298-554 WT (ERα ligand-binding domain) (P03372 298-554): as the sequence (P03372 298-554 D538G) above, with G241D counted along it
Summary of the method: as §1

[6] = molecular target: His6-ERα298-554 Y537S mutant (ERα ligand-binding domain) (Homo sapiens (Human), UniProt P03372, Y537S); assay: Test A: biochemical antagonist activity, LanthaScreen TR-FRET ERα coactivator assay, Y537S mutant; conditions: read-out: Antagonism Y537S IC50
Sequence of His6-ERα298-554 Y537S mutant (ERα ligand-binding domain) (P03372 298-554 Y537S): as the sequence (P03372 298-554 D538G) above, with Y240S, G241D counted along it
Summary of the method: as §1

[7] = tested on: MCF7 cells expressing mutant estrogen receptor Asp 538 Gly; assay: Test B: cell proliferation/viability assay (CellTiter-Glo) on MCF7 Asp 538 Gly mutant; assay type: cell-based; conditions: Homo sapiens, MCF7, 168 h, MCF7 cells expressing ER Asp 538 Gly mutant, 7 days of compound exposure, read-out: proliferation MCF7 D538G IC50
Source text: as §2, §3, §6, §7, §4, §5

[8] = asterisk (*): protocol using 10 nM estradiol

SMILES | IC50 [1, 8] [nM] | IC50 [2] [nM] | DC50 [3] [nM] | % Degradation at 3 μM [3] [%] | IC50 [4] [nM] | IC50 [5, 8] [nM] | IC50 [6, 8] [nM] | IC50 [7] [nM] | IC50 ([1]; protocol with 3 nM estradiol) [nM] | IC50 ([5]; protocol with 3 nM estradiol) [nM] | IC50 ([6]; protocol with 3 nM estradiol) [nM]
CC(C)(O)c1ccc(C2=C(c3ccc(O[C@H]4CCN(CCCF)C4)cc3)c3ccc(O)cc3SC2)c(F)c1 [Example 33, 3-[2-fluoro-4-(1-hydroxy-1-methyl-ethyl)phenyl]-4-[4-[(3S)-1-(3-fluoropropyl)pyrrolidin-3-yl]oxyphenyl]-2H-thiochromen-7-ol] | 1690 | 4 | 1 | 84 | 22 | 66 | 596 | 2 | – | – | –
CC(C)Oc1ccc(C2=C(c3ccc(O[C@H]4CCN(CCCF)C4)cc3)c3ccc(O)cc3OCC2)cc1F [Example 141, 4-(3-fluoro-4-isopropoxy-phenyl)-5-[4-[(3S)-1-(3-fluoropropyl)pyrrolidin-3-yl]oxyphenyl]-2,3-dihydro-1-benzoxepin-8-ol] | – | 1 | 2 | 87 | 22 | – | – | 4 | 1500 | 23 | 1120
Oc1ccc2c(c1)SCC(c1ccc(OC(F)(F)F)cc1)=C2c1ccc(O[C@H]2CCN(CCCF)C2)cc1 [Example 54, 4-[4-[(3S)-1-(3-fluoropropyl)pyrrolidin-3-yl]oxyphenyl]-3-[4-(trifluoromethoxy)phenyl]-2H-thiochromen-7-ol] | 3030 | 3 | 1 | 74 | 21 | 246 | 2640 | 3 | – | – | –
Cc1ccc(C2=C(c3ccc(O[C@H]4CCN(CCCF)C4)cc3)c3ccc(O)cc3SC2)c(F)c1 [Example 16, 3-(2-fluoro-4-methyl-phenyl)-4-[4-[(3S)-1-(3-fluoropropyl)pyrrolidin-3-yl]oxyphenyl]-2H-thiochromen-7-ol] | – | 0.9 | 1 | 90 | 10 | – | – | 2 | 16 | 4 | 6
Oc1ccc2c(c1F)CCCC(c1ccc(Cl)cc1Cl)=C2c1ccc(O[C@H]2CCN(CCCF)C2)nc1 [Example 245, 6-(2,4-dichlorophenyl)-1-fluoro-5-[6-[(3S)-1-(3-fluoropropyl)pyrrolidin-3-yl]oxy-3-pyridyl]-8,9-dihydro-7H-benzo[7]annulen-2-ol] | – | 0.3 | 0.5 | 87 | 3 | – | – | 0.1 | 4 | 0.4 | 3
CC1(C)Cc2cc(C3=C(c4ccc(O[C@H]5CCN(CCCF)C5)cc4)c4ccc(O)cc4SCC3)ccc2O1 [Example 201, 4-(2,2-dimethyl-3H-benzofuran-5-yl)-5-[4-[(3S)-1-(3-fluoropropyl)pyrrolidin-3-yl]oxyphenyl]-2,3-dihydro-1-benzothiepin-8-ol] | 21 | 0.2 | 0.8 | 85 | 8 | 1 | 15 | 1 | – | – | –
Cc1ccc(C2=C(c3ccc(O[C@H]4CCN(CCCF)C4)cc3)c3ccc(O)cc3SCC2)c(F)n1 [Example 192, 4-(2-fluoro-6-methyl-3-pyridyl)-5-[4-[(3S)-1-(3-fluoropropyl)pyrrolidin-3-yl]oxyphenyl]-2,3-dihydro-1-benzothiepin-8-ol] | 205 | 0.3 | 0.4 | 91 | 5 | 9 | 109 | 0.9 | – | – | –
Oc1ccc2c(c1)OCCC(c1ccc3c(c1)CCO3)=C2c1ccc(O[C@H]2CCN(CCCF)C2)cc1 [Example 151, 4-(2,3-dihydrobenzofuran-5-yl)-5-[4-[(3S)-1-(3-fluoropropyl)pyrrolidin-3-yl]oxyphenyl]-2,3-dihydro-1-benzoxepin-8-ol] | 88 | 0.3 | 0.4 | 90 | 7 | 6 | 68 | 1 | – | – | –
Oc1ccc2c(c1)OCCC(c1ccc3occc3c1)=C2c1ccc(O[C@H]2CCN(CCCF)C2)cc1 [Example 120, 4-(benzofuran-5-yl)-5-[4-[(3S)-1-(3-fluoropropyl)pyrrolidin-3-yl]oxyphenyl]-2,3-dihydro-1-benzoxepin-8-ol] | – | 1 | 0.7 | 91 | 10 | – | – | 2 | 7 | 2 | 4
Oc1ccc2c(c1)SCCC(c1ccc(OC(F)F)c(F)c1)=C2c1ccc(O[C@H]2CCN(CCCF)C2)cc1 [Example 191, 4-[4-(difluoromethoxy)-3-fluoro-phenyl]-5-[4-[(3S)-1-(3-fluoropropyl)pyrrolidin-3-yl]oxyphenyl]-2,3-dihydro-1-benzothiepin-8-ol] | – | 0.3 | 0.2 | 95 | 3 | – | – | 0.4 | 51 | 3 | 32
Oc1ccc2c(c1)SCCC(c1ccc(SC(F)(F)F)cc1)=C2c1ccc(O[C@H]2CCN(CCCF)C2)cc1 [Example 222, 5-[4-[(3S)-1-(3-fluoropropyl)pyrrolidin-3-yl]oxyphenyl]-4-[4-(trifluoromethylsulfanyl)phenyl]-2,3-dihydro-1-benzothiepin-8-ol] | 371 | 4 | 1 | 80 | 1 | 18 | 238 | 0.4 | – | – | –
Oc1ccc2c(c1)OCCC(c1ccc(OC3CC3)cc1)=C2c1ccc(O[C@H]2CCN(CCCF)C2)cc1 [Example 149, 4-[4-(cyclopropoxy)phenyl]-5-[4-[(3S)-1-(3-fluoropropyl)pyrrolidin-3-yl]oxyphenyl]-2,3-dihydro-1-benzoxepin-8-ol] | 303 | 0.5 | 0.9 | 91 | 12 | 23 | 289 | 2 | – | – | –
CCOc1ccc(C2=C(c3ccc(O[C@H]4CCN(CCCF)C4)cc3)c3ccc(O)cc3OCC2)c(Cl)c1 [Example 153, 4-(2-chloro-4-ethoxy-phenyl)-5-[4-[(3S)-1-(3-fluoropropyl)pyrrolidin-3-yl]oxyphenyl]-2,3-dihydro-1-benzoxepin-8-ol] | 117 | 0.3 | 0.2 | 91 | 3 | 6 | 86 | 0.7 | – | – | –
Cc1ccc(C2=C(c3ccc(O[C@H]4CCN(CCCF)C4)cc3)c3ccc(O)cc3SC2)c(F)c1F [Example 64, 3-(2,3-difluoro-4-methyl-phenyl)-4-[4-[(3S)-1-(3-fluoropropyl)pyrrolidin-3-yl]oxyphenyl]-2H-thiochromen-7-ol] | 492 | 1 | 0.2 | 81 | 5 | 24 | 204 | 0.7 | – | – | –
